Common to all, as to type: biochemical
In test [1] the target is EGFR (h) (Homo sapiens, UniProt P00533). The test is described as follows: Kinase profiling, glass-fiber filter technology: EGFR. The conditions noted are these: test concentration of 10^−6 M; read-out: EGFR inhibition score. As to the method:
(§1) The in vitro inhibition of a panel of kinases was assessed using the glass-fiber filter technology as described by Davies, S. P. et al., Biochem J. (2000), 351; p. 95-105.
(§2) In the glass-fiber filter technology the activity of the kinase of interest is measured using an appropriate substrate that is incubated with the aforementioned kinase protein in the presence of (^33P) radiolabeled ATP. (^33P) Phosporylation of the substrate is subsequently measured as radioactivity bound on a glassfiber-filter.
(§3) All kinases are pre-diluted to a 10× working concentration prior to addition into the assay. The composition of the dilution buffer for each kinase is detailed below.
(§4) All substrates are dissolved and diluted to working stocks in de-ionised water.
(§5) In a final reaction volume of 25 μl, EGFR (h) (5-10 mU) is incubated with 8 mM MOPS pH 7.0, 0.2 mM EDTA, 10 mM MnCl2, 0.1 mg/ml poly(Glu, Tyr) 4:1, 10 mM MgAcetate and [γ-^33P-ATP] (specific activity approx. 500 cpm/pmol, concentration as required). The reaction is initiated by the addition of the MgATP mix. After incubation for 40 minutes at room temperature, the reaction is stopped by the addition of 5 μl of a 3% phosphoric acid solution. 10 μl of the reaction is then spotted onto a Filtermat A and washed three times for 5 minutes in 75 mM phosphoric acid and once in methanol prior to drying and scintillation counting.

Test [2] deals with Lck (h) (Homo sapiens, UniProt P06239). Briefly: Kinase profiling, glass-fiber filter technology: Lck. Conditions: test concentration of 10^−6 M; read-out: Lck inhibition score. The protocol:
as §1, §2, §3, §4
In a final reaction volume of 25 μl, Lck (h) (5-10 mU) is incubated with 50 mM Tris pH 7.5, 0.1 mM EGTA, 0.1 mM Na3VO4, 250 μM KVEKIGEGTYGVVYK (Cdc2 peptide), 10 mM MgAcetate and [γ-^33P-ATP] (specific activity approx. 500 cpm/pmol, concentration as required). The reaction is initiated by the addition of the MgATP mix. After incubation for 40 minutes at room temperature, the reaction is stopped by the addition of 5 μl of a 3% phosphoric acid solution.
10 μl of the reaction is then spotted onto a P30 filtermat and washed three times for 5 minutes in 75 mM phosphoric acid and once in methanol prior to drying and scintillation counting.

Test [3] concerns the target T1, Bmx (h) (Homo sapiens, UniProt P51813).
T1 sequence (P51813 1-675): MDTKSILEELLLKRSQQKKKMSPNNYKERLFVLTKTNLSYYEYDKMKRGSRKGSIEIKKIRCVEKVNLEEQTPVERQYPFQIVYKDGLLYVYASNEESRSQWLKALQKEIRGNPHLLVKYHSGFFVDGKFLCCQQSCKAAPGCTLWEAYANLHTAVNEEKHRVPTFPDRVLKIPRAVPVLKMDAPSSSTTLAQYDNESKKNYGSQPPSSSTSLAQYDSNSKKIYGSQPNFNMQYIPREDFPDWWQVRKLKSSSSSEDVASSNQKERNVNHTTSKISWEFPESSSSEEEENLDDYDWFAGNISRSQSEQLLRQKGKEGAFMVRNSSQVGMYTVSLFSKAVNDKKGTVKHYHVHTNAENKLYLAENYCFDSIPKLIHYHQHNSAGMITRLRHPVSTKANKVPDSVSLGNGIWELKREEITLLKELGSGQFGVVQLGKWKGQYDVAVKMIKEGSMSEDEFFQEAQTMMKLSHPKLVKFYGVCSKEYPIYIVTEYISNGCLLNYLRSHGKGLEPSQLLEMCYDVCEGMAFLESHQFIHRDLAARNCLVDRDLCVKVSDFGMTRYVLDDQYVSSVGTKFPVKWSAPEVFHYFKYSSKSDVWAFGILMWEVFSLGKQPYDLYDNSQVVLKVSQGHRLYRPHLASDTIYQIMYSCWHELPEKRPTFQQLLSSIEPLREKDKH
Briefly: Kinase profiling, glass-fiber filter technology: Bmx. Conditions: test concentration of 10^−6 M; read-out: Bmx inhibition score. The protocol: as §1, §2, §3, §4
as §5, with “Bmx” for “EGFR”, “EDTA,” for “EDTA, 10 mM MnCl2,”, “[γ-33P-ATP]” for “[γ-^33P-ATP]”

The target in test [4] is Yes (h) (Homo sapiens, UniProt P07947). Briefly: Kinase profiling, glass-fiber filter technology: Yes. The conditions noted are these: test concentration of 10^−6 M; read-out: Yes inhibition score. The protocol:
as §1, §2, §3, §4
as §5, with “Yes” for “EGFR”, “EDTA,” for “EDTA, 10 mM MnCl2,”

The target in test [5] is Ret human (Homo sapiens, UniProt P07949). The test is described as follows: Kinase profiling, glass-fiber filter technology: Ret. Conditions: test concentration of 10^−6 M; read-out: Ret inhibition score. The protocol:
as §1, §2, §3, §4
as §5, with “Ret human” for “EGFR (h)”, “250 μM KKKSPGEYVNIEFG,” for “10 mM MnCl2, 0.1 mg/ml poly(Glu, Tyr) 4:1,”, “P30 filtermat” for “Filtermat A”

Some results are limits rather than exact numbers.

Lck (h), sequence (P06239 whole entry): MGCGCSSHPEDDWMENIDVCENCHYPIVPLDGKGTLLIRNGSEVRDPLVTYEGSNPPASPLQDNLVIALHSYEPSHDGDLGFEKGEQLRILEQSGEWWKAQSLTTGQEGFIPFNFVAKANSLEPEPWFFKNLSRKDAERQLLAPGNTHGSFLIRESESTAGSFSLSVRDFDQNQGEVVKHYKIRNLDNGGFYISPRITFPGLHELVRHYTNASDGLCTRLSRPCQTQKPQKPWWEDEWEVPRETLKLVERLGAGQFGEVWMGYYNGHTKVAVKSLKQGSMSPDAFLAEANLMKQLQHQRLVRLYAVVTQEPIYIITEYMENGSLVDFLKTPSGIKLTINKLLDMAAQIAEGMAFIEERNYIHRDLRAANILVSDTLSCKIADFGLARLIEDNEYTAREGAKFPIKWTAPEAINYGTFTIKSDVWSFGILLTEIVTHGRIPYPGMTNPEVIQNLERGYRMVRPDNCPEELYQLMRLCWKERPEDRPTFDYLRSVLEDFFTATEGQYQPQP
Yes (h), sequence (P07947 whole entry): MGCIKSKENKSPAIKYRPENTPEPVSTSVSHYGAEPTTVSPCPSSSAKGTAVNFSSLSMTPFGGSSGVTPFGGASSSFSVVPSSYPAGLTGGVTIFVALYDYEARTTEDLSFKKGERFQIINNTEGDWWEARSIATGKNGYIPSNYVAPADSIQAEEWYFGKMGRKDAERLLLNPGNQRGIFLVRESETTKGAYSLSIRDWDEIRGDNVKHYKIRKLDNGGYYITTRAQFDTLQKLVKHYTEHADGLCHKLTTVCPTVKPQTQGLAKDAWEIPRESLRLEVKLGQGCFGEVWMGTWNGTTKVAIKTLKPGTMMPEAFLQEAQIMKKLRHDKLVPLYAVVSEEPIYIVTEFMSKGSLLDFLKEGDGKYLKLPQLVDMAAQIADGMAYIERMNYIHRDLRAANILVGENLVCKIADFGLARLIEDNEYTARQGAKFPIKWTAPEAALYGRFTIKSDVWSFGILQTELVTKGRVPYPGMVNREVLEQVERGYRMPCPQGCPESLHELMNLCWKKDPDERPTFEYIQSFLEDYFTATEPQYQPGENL
EGFR (h), sequence (P00533 25-1210): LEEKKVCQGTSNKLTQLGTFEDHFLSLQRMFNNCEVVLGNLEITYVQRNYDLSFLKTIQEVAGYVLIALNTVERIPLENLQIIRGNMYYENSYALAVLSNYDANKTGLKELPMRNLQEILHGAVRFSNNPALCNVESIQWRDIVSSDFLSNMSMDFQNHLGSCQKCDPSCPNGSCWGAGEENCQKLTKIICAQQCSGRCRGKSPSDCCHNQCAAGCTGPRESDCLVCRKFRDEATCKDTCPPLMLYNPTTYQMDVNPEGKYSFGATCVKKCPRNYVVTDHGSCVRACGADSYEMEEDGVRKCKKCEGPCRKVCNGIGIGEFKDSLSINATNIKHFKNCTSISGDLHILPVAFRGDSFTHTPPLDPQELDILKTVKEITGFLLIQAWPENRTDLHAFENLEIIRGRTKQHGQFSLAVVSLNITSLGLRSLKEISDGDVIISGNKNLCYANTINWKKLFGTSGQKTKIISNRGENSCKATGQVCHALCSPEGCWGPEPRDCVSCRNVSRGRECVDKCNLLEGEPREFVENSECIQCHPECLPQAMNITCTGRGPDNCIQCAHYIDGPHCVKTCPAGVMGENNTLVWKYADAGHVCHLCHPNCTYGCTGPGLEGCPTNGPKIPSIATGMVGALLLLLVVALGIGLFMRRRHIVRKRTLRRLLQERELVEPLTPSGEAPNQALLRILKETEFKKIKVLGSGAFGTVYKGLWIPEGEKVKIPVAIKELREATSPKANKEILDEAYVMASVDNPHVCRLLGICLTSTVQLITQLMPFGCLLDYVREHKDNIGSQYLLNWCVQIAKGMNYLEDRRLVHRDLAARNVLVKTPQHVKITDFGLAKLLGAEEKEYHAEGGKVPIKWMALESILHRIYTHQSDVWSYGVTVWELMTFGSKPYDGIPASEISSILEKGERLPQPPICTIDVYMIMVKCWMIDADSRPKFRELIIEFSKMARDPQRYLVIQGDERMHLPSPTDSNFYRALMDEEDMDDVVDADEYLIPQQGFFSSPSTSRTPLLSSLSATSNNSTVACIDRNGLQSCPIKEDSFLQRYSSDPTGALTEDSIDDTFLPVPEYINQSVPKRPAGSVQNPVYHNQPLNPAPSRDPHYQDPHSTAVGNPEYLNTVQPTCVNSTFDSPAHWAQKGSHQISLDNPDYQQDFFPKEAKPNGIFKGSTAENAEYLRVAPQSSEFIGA
Ret human, sequence (P07949 29-1114): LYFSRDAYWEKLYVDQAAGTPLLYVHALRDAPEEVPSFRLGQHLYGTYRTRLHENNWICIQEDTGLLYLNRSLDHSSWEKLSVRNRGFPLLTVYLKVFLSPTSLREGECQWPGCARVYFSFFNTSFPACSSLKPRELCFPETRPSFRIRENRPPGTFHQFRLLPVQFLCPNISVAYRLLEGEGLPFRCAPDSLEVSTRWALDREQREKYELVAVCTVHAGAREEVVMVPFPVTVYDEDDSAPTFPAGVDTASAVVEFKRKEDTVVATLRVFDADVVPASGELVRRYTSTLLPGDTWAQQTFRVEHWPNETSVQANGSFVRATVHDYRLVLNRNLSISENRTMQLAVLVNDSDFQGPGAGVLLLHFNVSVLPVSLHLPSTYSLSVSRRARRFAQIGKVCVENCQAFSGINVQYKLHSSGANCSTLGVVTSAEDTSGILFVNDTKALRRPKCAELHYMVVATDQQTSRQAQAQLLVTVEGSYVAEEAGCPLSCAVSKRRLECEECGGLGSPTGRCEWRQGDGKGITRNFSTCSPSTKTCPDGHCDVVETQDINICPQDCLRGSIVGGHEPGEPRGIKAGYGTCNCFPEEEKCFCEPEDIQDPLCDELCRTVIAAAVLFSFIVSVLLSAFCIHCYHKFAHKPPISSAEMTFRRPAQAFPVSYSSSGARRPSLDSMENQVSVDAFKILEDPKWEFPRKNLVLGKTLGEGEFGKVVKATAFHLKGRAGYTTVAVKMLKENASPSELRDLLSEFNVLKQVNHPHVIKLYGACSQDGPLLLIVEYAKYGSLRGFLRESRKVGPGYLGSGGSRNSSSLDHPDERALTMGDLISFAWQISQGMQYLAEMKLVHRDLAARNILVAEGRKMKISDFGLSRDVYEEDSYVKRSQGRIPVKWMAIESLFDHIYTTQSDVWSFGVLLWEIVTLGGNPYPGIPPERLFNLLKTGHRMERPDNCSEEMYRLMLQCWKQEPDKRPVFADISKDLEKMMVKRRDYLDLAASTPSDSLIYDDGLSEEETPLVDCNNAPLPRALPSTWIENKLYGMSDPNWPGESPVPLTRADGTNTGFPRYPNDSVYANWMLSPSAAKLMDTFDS

In general, inhibition refers to the drop in the measured response relative to a control, in per cent. Consider `CC(=O)NCCN1CCN(CCCOc2cc3ncnc4c3cc2OCCCNC(=O)[C@H](C)N(C)Cc2cc(F)c(Cl)cc2N4)CC1` [Compound 6], for which the inhibition at 1 µM in test [1] was more than 80%; in test [2], more than 80%; in test [3], 30 to 60%; in test [4] it was more than 80%.
As to `CN1CCCCCOc2cc3c(ncnc3cc2OCCCNCCS(C)(=O)=O)Nc2cc(Cl)c(F)cc2C1` [Compound 18], the inhibition at 1 µM in test [1] is more than 80%; in test [2], more than 80%; in test [3], 30 to 60%; in test [4] it was more than 80%.
For the molecule `CN1CCCCCOc2cc3c(ncnc3cc2OCCCNCCS(C)(=O)=O)Nc2cc(Br)ccc2C1` [Compound 14], the inhibition at 1 µM in test [1] was more than 80%; in test [2] it was more than 80%; in test [3] it was 30 to 60%; in test [4], more than 80%; in test [5], more than 80%.
As for `CN1CCCCCOc2cc3c(ncnc3cc2OCCCN2CCS(=O)(=O)CC2)Nc2cc(Cl)c(F)cc2C1` [Compound 19], the inhibition at 1 µM was more than 80% in test [1]; more than 80% in test [2]; 60 to 80% in test [3]; more than 80% in test [4]; more than 80% in test [5].
`C#Cc1ccc2c(c1)Nc1ncnc3cc(OCCCNCCS(C)(=O)=O)c(cc13)OCCCCCN(C)C2` [Compound 20]: the inhibition at 1 µM in test [2] is more than 80%; in test [3], 60 to 80%; in test [4], more than 80%; in test [5], more than 80%.
In the case of `CN1CCCCCOc2cc3c(ncnc3cc2OC[C@H](O)CNCCOCCO)Nc2cc(Cl)c(F)cc2C1` [Compound 17], the inhibition at 1 µM in test [1] was more than 80%; in test [2], more than 80%; in test [3], 60 to 80%; in test [4], more than 80%.
For `CC(=O)NCCNCCCOc1cc2ncnc3c2cc1OCCCNC(=O)[C@H](C)N(C)Cc1cc(F)c(Cl)cc1N3` [Compound 4], the inhibition at 1 µM in test [1] is more than 80%; in test [2] it was more than 80%; in test [3], 30 to 60%; in test [4], more than 80%; in test [5], more than 80%.
`CC(=O)OCCN(C)CCCOc1cc2ncnc3c2cc1OCCCNC(=O)[C@H](C)N(C)Cc1cc(F)c(Cl)cc1N3` [Compound 2]: the inhibition at 1 µM in test [1] is more than 80%; in test [2] it was more than 80%; in test [3] it was 30 to 60%; in test [4], more than 80%; in test [5] it was more than 80%.
Consider `COc1cc2ncnc3c2cc1OCCCN(CCCN1CCOCC1)C(=O)[C@H](CC(C)C)NC(=O)Cc1ccc(Br)cc1N3` [Int. 25], for which the inhibition at 1 µM in test [1] was more than 80%; in test [2], 60 to 80%; in test [4] it was more than 80%; in test [5] it was 30 to 60%.
On to `COCCOCCOc1cc2ncnc3c2cc1OCCCCCN(C)Cc1ccc(Br)cc1N3` [Int. 43], for which the inhibition at 1 µM in test [1], in test [2], in test [4] and in test [5] was more than 80% throughout.
As to `C[C@H]1C(=O)NCCCOc2cc3c(ncnc3cc2OCCCN2CCN(C(=O)OC(C)(C)C)CC2)Nc2cc(Cl)c(F)cc2CN1C` [Int. 16], the inhibition at 1 µM in test [1] is more than 80%; in test [2], more than 80%; in test [3] it was 30 to 60%; in test [5], more than 80%.
For `COc1cc2ncnc3c2cc1OCCCN(CCN1CCOCC1)C(=O)CNC(=O)Cc1ccc(Cl)cc1N3` [Compound 15], the inhibition at 1 µM was more than 80% in test [1], 30 to 60% in test [2], 60 to 80% in test [4] and 10 to 30% in test [5].
With `CC(=O)NCCNCCCOc1cc2ncnc3c2cc1OCCCCCN(C)Cc1ccc(Br)cc1N3` [Compound 13], the inhibition at 1 µM in test [1] is more than 80%; in test [2], more than 80%; in test [3] it was 60 to 80%; in test [4], more than 80%; in test [5] it was more than 80%.
`CN1CCCCCOc2cc3c(ncnc3cc2OCCCNC(=O)OC(C)(C)C)Nc2cc(Br)ccc2C1` [Compound 11]: the inhibition at 1 µM is more than 80% in test [1], 10 to 30% in test [3], more than 80% in test [4] and more than 80% in test [5].
As for `CC(=O)N(CCO)CCCOc1cc2ncnc3c2cc1OCCCNC(=O)[C@H](C)N(C)Cc1cc(F)c(Cl)cc1N3` [Compound 5], the inhibition at 1 µM is more than 80% in test [1]; 60 to 80% in test [2]; 30 to 60% in test [3]; more than 80% in test [4]; 60 to 80% in test [5].
`CN1CCCCCOc2cc3c(ncnc3cc2OC[C@@H](O)CN2CCS(=O)(=O)CC2)Nc2cc(Br)ccc2C1` [Compound 12]: the inhibition at 1 µM in test [1] is more than 80%; in test [2], more than 80%; in test [3], 30 to 60%; in test [4] it was more than 80%; in test [5] it was more than 80%.
